Assays:
Type in all cases: cell-based
TLR3 = target: T1, TLR3 (Homo sapiens, UniProt O15455); experiment: HEK293 cells transfected with human TLR3, NF-κB driven reporter; conditions: concentration up to 25 uM
T1 construct: expressed in transfected cells; host or cells: HEK293
T1 sequence (O15455 24-904): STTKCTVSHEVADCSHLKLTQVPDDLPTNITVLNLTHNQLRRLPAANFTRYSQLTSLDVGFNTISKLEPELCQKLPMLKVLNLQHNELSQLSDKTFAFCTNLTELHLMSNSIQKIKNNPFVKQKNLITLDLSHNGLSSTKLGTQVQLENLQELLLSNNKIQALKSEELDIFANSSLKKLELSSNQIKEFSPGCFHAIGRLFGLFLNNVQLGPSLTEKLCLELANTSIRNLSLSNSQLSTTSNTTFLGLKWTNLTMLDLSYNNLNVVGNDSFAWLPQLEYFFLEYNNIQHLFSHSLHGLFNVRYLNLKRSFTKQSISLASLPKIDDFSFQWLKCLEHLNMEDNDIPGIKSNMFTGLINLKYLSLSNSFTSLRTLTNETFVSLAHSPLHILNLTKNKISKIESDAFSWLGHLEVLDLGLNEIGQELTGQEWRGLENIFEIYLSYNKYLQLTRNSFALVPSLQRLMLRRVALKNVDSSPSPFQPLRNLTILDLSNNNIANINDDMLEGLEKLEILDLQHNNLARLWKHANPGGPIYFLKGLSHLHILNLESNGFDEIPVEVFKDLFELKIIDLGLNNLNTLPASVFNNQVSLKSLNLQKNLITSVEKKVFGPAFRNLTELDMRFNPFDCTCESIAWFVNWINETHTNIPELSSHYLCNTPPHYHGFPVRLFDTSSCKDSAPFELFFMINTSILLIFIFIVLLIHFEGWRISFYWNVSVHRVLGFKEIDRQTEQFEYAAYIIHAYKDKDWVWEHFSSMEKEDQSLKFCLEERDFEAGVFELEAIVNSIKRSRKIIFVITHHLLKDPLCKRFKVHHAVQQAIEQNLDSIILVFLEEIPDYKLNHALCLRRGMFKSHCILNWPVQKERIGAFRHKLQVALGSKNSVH
Protocol: (§1) FIG. 8 is two graphs depicting the potency and selectivity of VTX-378 for TLR8. The half-maximal effective concentration (EC50) for VTX-378 activation of TLR8 and TLR7 was assessed in peripheral blood mononuclear cells (PBMCs) by the amount of secreted TNFα (A) and by the activity of NF-κB (B) from 15 healthy donors and also in HEK293 cells transfected with various human TLRs.
(§2) Preclinical studies were performed with VTX-378, the active pharmaceutical ingredient in VTX-1463. The specificity of VTX-378 for human TLR8 relative to other TLRs was assessed in transfected Human Embryonic Kidney 293 (HEK293) cells engineered to express individual TLRs (2-9) via transfection, and assessed using an NF-κB driven reporter system. […] The pharmacologic effects of VTX-378 were characterized in vitro using isolated human peripheral blood mononuclear cells (PBMCs).

TLR5 = target: T2, TLR5 (Homo sapiens, UniProt O60602); experiment: HEK293 cells transfected with human TLR5, NF-κB driven reporter; conditions: concentration up to 25 uM
T2 construct: expressed in transfected cells; host or cells: HEK293
Protocol: as §1, §2

TLR7 = target: T3, TLR7 (Homo sapiens, UniProt Q9NYK1); experiment: HEK293 cells transfected with human TLR7, NF-κB driven reporter; conditions: read-out: EC50, activation of TLR7
T3 construct: expressed in transfected cells; host or cells: HEK293
T3 sequence (Q9NYK1 27-1049): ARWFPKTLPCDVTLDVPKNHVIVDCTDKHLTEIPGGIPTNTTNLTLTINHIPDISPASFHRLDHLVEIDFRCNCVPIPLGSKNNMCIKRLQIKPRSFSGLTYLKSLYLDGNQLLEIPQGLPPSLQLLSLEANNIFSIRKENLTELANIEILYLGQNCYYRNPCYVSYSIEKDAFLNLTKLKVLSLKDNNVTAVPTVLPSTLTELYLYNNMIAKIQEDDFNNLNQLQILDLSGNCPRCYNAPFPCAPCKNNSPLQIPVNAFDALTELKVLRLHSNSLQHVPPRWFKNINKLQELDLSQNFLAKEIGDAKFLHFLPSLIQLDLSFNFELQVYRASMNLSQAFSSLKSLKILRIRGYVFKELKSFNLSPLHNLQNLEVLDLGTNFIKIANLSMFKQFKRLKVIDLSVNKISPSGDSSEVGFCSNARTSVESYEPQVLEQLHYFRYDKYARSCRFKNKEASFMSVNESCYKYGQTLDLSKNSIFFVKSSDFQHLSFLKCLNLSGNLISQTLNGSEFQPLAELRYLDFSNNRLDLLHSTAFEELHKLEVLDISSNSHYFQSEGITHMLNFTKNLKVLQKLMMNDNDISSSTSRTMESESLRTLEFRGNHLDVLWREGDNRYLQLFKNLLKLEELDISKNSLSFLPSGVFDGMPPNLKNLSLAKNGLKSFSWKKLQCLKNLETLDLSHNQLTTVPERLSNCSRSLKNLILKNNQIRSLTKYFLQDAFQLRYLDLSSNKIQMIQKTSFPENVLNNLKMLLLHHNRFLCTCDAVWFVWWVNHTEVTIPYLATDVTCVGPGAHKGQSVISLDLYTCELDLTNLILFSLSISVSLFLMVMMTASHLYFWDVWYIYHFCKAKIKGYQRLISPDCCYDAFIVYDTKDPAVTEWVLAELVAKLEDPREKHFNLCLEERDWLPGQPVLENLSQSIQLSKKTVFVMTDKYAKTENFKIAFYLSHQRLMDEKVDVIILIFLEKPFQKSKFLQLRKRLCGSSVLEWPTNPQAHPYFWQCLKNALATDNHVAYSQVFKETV
Protocol: as §1, §2

T2 sequence (O60602 21-858): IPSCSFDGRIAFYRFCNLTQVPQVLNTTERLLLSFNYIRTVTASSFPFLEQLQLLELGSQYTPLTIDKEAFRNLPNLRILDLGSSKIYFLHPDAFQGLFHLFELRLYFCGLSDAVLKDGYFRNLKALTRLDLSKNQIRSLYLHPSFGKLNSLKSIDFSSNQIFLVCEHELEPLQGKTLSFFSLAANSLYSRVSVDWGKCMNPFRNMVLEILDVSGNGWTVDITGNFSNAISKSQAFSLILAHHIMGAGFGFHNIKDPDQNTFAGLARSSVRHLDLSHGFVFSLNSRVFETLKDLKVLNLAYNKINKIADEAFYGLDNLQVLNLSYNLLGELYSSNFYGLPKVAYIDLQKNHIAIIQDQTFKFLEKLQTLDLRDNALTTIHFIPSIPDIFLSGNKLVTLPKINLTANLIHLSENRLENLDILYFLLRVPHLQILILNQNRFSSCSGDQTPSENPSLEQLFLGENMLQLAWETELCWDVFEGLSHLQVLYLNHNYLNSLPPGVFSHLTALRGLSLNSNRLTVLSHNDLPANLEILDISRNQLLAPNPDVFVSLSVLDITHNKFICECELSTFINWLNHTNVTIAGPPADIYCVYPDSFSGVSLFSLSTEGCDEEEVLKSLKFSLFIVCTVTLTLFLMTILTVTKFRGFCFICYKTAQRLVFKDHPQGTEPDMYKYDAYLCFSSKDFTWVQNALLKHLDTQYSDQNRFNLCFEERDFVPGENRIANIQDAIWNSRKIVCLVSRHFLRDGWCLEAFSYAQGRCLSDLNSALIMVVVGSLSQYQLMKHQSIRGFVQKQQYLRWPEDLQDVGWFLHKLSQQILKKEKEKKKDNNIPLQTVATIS

SMILES: CCCN(CCC)C(=O)C1=Cc2ccc(-c3ccc(C(=O)N4CCCC4)cc3)cc2N=C(N)C1 [VTX-378]
- activity on TLR3 (TLR3): no detectable activity
- activity on TLR5 (TLR5): no detectable activity
- EC50 (TLR7): ~2000 nM
